Results from US10815183B2, “Substituted aromatic compounds and pharmaceutical uses thereof” (PROMETIC PHARMA SMT LIMITED, priority 2009, dated 2020).
One block for each molecule: values may come before it.

Legend:
[1] = Kidney protection in 5/6 nephrectomized (Nx) rat model, GFR (creatinine clearance); type: in vivo, Wistar rats
Source text: (§1) Male 6 week-old Wistar rats were subjected to ⅚ nephrectomy or sham operations. Under fluothane anesthesia, renal ablation was achieved by removing two-thirds of the left kidney followed by a right unilateral nephrectomy 7 days later. Sham rats underwent exposition of the kidneys and removal of the perirenal fat. Twenty-one days after the first operation, rats were randomized in the study by their reduced glomerular filtration rate (GFR) of creatinine indicating a dysfunction of the kidney. Animals that underwent the sham operation were given vehicle (saline) and were used as controls. Nx animals were divided in groups receiving the vehicle or Compound I. Saline or Compound I was given by gastric gavage once daily up to the sacrifice. GFR was measured every three weeks in order to assess the severity of this end-stage renal disease model. Rats were sacrificed at day 190.

[2] = Heart protection in 5/6 nephrectomized rats, blood pressure; type: in vivo; conditions: Nx rats (FIG. 7)
Source text: as §1

[3] = Doxorubicin-induced nephrotoxicity model: serum albumin, serum creatinine, histological kidney lesions; type: in vivo, C57Bl/6 mice; conditions: for serum creatinine increase induced by doxorubicin: mice (FIG. 9)
Description: (§2) C57Bl/6 mice (6-10 week-old) were treated with Compound I prophylacticly from day −3 to day 10 or treated therapeutically from day 1 to 10. Nephrotoxicity was induced by an intravenous injection of 10 mg/kg of doxorubicin at day 0. Serum albumin and creatinine were monitored at days 4, 7, 9 and 11.
Doxorubicin is well known to induce nephro- and cardiotoxicity. FIG. 10 represents the histological kidney lesions score as determined by histochemistry in the doxorubicin-induced nephrotoxicity model.
Doxorubicin induces early lesions primarily at the tubular region. Toxicity is further extended to the glomerulus (around day 11 post-doxorubicin). FIG. 11 represents the histological micrographs of doxorubicin-induced lesions in control and Compound I-treated (prophylactic treatment) mice. Doxorubicin induces kidney cell apoptosis, fibrosis, sclerosis and accumulation of proteins in affected tubular regions.

[4] = tested on: bone marrow cells; test: Chemoprotection studies: bone marrow and blood cell counts in cyclophosphamide immunosuppressed mice (hematopoiesis/erythropoiesis); type: in vivo, C57BL/6 mice; conditions: for In Vivo Results: effect on hematopoiesis/erythropoiesis: degree of activity compared to the activity of compound I; for Red Blood Cells (10^9) / Red Bone Marrow Cells (10^6): mice, cyclophosphamide 200 mg/kg iv day 0, compound oral pre-treatment day -3, -2, -1, sacrifice day +5
Description: Female C57BL/6 mice, 6 to 8 week old, were immunosuppressed by treatment with 200 mg/kg of cyclophosphamide administered intravenously at day 0. To examine the immunoprotective effect of compound I, mice were pre-treated orally at day −3, −2 and −1 with the compound. Mice were sacrificed at day +5 by cardiac puncture and cervical dislocation. Then, a gross pathological observation of the femurs (as a source of bone marrow cells) was recorded. After the sacrifice, tissues were crushed in PBS buffer and cells were counted on a hemacytometer.
Additional compounds related to compound I were also prepared and tested for biological activity.

[5] = tested on: PGE2; test: LPS-induced inflammation in the rat air-pouch model, PGE2 in pouch exudates by ELISA; type: in vivo, Lewis rats
Source text: LPS-induced inflammation in the rat air-pouch model is believed to mimic the pathological process occurring in joint diseases such as arthritis. This is because the connective tissues formed along the air pouch are similar to those found in chronic joint diseases. LPS-induced inflammation and chronic joint diseases share other features, including markedly elevated PGE2, neutrophil infiltration, cytokine formation, and tissue damage.
An air cavity was produced at day −6 by subcutaneous injection of 20 ml of sterile air into the […] area of the back of male Lewis rats (175-200 g). An additional 10 ml of air was injected into the cavity at day −3 to keep the space open. At day 0, compounds were administered intravenously and one hour later lipopolysaccharide (LPS: 2.5 ml, 2 μg/ml in PBS) was injected into the pouch to produce an inflammatory reaction. Two hours after treatment with LPS, animals were euthanized by CO2 asphyxiation and 5 ml of PBS/heparin (10 U/ml)/indomethacin (36 μg/ml) was injected into the pouch. The pouch fluid was collected and PGE2 was determined in the pouch exudates by ELISA.

[6] = tested on: TGF-β; test: TGF-β mRNA expression in kidneys from doxorubicin-treated mice; type: in vivo, C57Bl/6 mice
Description: as §2
CTGF is also regulated by TGF-β. FIG. 13 illustrates the mRNA expression of TGF-β in kidneys. Doxorubicin increases by 73% the mRNA expression of TGF-β in kidneys. Pre-treatment with Compound I induces a 26% decrease of TGF-β expression.

[7] = tested on: CTGF; type: in vivo, C57Bl/6 mice; conditions: pre-treatment, doxorubicin-treated mice (FIG. 12)
Description: as §2

SMILES: CCCCCc1cccc(CC(=O)[O-])c1.[Na+] [Compound I, Sodium Salt of 3-Pentylphenylacetic Acid]
improvement of GFR compared to initial GFR (before treatment) at day 21 ([1]; Nx rats over treatment period, Nx control 50% deterioration (FIG. 6)): 50%
improvement of GFR (creatinine clearance) ([1]; Nx rats, gastric gavage once daily, day 190 (FIG. 5)): two-fold
blood pressure [2]: significant decrease
histological kidney lesions at the tubular level induced by doxorubicin ([3]; prophylactic (pre-doxorubicin) and therapeutic (post-doxorubicin) treatments (FIG. 10)): reduce the kidney lesions
protection of the kidney against doxorubicin toxicity (histological micrographs) ([3]; prophylactic or therapeutic treatment (FIG. 11)): protects the kidney
serum albumin decrease induced by doxorubicin ([3]; prophylactic treatment day -3 to day 10, oral, mice (FIG. 8)): inhibits the decrease
serum creatinine increase induced by doxorubicin ([3]; prophylactic treatment day -3 to day 10, oral): inhibits the increase
serum albumin level induced by doxorubicin ([3]; therapeutic treatment day 1 to 10, oral, mice (FIG. 8)): no effect
serum creatinine increase induced by doxorubicin ([3]; therapeutic treatment day 1 to 10, oral): inhibits the increase
circulating red blood cells (in words) ([4]; cyclophosphamide immunosuppressed mice): increases
In Vivo Results: effect on hematopoiesis/erythropoiesis [4]: +++ (+++ designates 70 to 100% of compound I activity)
Red Blood Cells (10^9) [4]: 7.0 10^9
Red Bone Marrow Cells (10^6) [4]: 11.5 10^6
red bone marrow cell count (in words) ([4]; oral pre-treatment, cyclophosphamide immunosuppressed mice): increase
white bone marrow cell count ([4]; oral pre-treatment, cyclophosphamide immunosuppressed mice (FIG. 2)): increase
total bone marrow cell count ([4]; oral pre-treatment, cyclophosphamide treated mice (FIG. 1)): significant increase
inhibition of PGE2 compared with positive control indomethacin ([5]; two hours after LPS): similar
inhibition of PGE2 ([5]; two hours after administration of LPS (FIG. 3)): significant inhibition
decrease of TGF-β expression in kidneys ([6]; pre-treatment, doxorubicin-treated mice (FIG. 13)): 26%
CTGF expression in kidneys [7]: significant decrease

SMILES: CCC/C=C/c1cccc(CC(=O)[O-])c1.[Na+] [Compound II, Sodium Salt of E-(3-pent-1-enyl-phenyl)acetic Acid]
In Vivo Results: effect on hematopoiesis/erythropoiesis [4]: +++ (+++ designates 70 to 100% of compound I activity)

SMILES: CCCCCc1ccc(O)c(CC(=O)[O-])c1.[Na+] [Compound III, Sodium salt of (2-hydroxy-5-pentylphenyl)acetic Acid]
In Vivo Results: effect on hematopoiesis/erythropoiesis [4]: + (+ designates 5-40% of compound I activity)

SMILES: CCCCCc1cc(CCC(=O)[O-])ccc1F.[Na+] [Compound IV, Sodium Salt of 3-(4-fluoro-3-pentylphenyl)propionic Acid]
In Vivo Results: effect on hematopoiesis/erythropoiesis [4]: +++ (+++ designates 70 to 100% of compound I activity)

SMILES: CCCCc1cccc(CCC(=O)[O-])c1.[Na+] [Compound IX, Sodium Salt of 3-(3-butylphenyl)propionic Acid]
In Vivo Results: effect on hematopoiesis/erythropoiesis [4]: ++ (++ designates 40-70% of compound I activity)

SMILES: CCCCCc1cccc(CCC(=O)[O-])c1.[Na+] [Compound V, Sodium Salt of 3-(3-pentylphenyl)propionic Acid]
In Vivo Results: effect on hematopoiesis/erythropoiesis [4]: ++ (++ designates 40-70% of compound I activity)

SMILES: CCCCCc1cccc(C(C)(C)C(=O)[O-])c1.[Na+] [Compound VI, Sodium Salt of 2-Methyl-2-(3-pentylphenyl)propionic Acid]
In Vivo Results: effect on hematopoiesis/erythropoiesis [4]: ++ (++ designates 40-70% of compound I activity)

SMILES: CCCCCc1cccc(C(CO)C(=O)[O-])c1.[Na+] (stereo not drawn) [Compound VII, Sodium Salt of 3-Hydroxy-2-(3-pentyl-phenyl)propionic Acid]
In Vivo Results: effect on hematopoiesis/erythropoiesis [4]: +++ (+++ designates 70 to 100% of compound I activity)

SMILES: CCCCCc1cccc(C(C)C(=O)[O-])c1.[Na+] (stereo not drawn) [Compound VIII, Sodium Salt of 2-(3-pentylphenyl)propionic Acid]
In Vivo Results: effect on hematopoiesis/erythropoiesis [4]: ++ (++ designates 40-70% of compound I activity)

SMILES: C/C=C\CCc1cccc(CC(=O)[O-])c1.[Na+] [Compound X, Sodium Salt of E/Z-(3-Pent-3-enylphenyl)acetic Acid]
In Vivo Results: effect on hematopoiesis/erythropoiesis [4]: +++ (+++ designates 70 to 100% of compound I activity)

SMILES: CCCCCc1cc(O)cc(CC(=O)[O-])c1.[Na+] [Compound XI, Sodium Salt of [3-Hydroxy-5-pentylphenyl]acetic acid]
In Vivo Results: effect on hematopoiesis/erythropoiesis [4]: ++++ (++++ designates greater activity than compound I)

SMILES: CCCCCc1ccc(C(=O)[O-])cc1.[Na+] [Compound XII, Sodium Salt of 4-Pentylbenzoic Acid]
In Vivo Results: effect on hematopoiesis/erythropoiesis [4]: ++ (++ designates 40-70% of compound I activity)

SMILES: CCCCCCc1cccc(C(=O)[O-])c1.[Na+] [Compound XIII, Sodium Salt of 3-Hexylbenzoic Acid]
In Vivo Results: effect on hematopoiesis/erythropoiesis [4]: +++ (+++ designates 70 to 100% of compound I activity)

SMILES: CCCCc1ccc2c(c1)CC(C(=O)[O-])C2.[Na+] (stereo not drawn) [Compound XIV, Sodium Salt of 5-Butylindan-2-carboxylc Acid]
In Vivo Results: effect on hematopoiesis/erythropoiesis [4]: ++ (++ designates 40-70% of compound I activity)

SMILES: O=P1(N(CCCl)CCCl)NCCCO1 (stereo not drawn) [Cyclophosphamide, reference compound]
Red Blood Cells (10^9) [4]: 5.7 10^9
Red Bone Marrow Cells (10^6) [4]: 8.1 10^6

increase of mRNA expression of TGF-β in kidneys ([6]; doxorubicin 10 mg/kg iv, mice): 73%
SMILES: COc1cccc2c1C(=O)c1c(O)c3c(c(O)c1C2=O)C[C@@](O)(C(=O)CO)C[C@@H]3O[C@H]1C[C@H](N)[C@H](O)[C@H](C)O1 [Doxorubicin, reference compound]
histological kidney lesions induced ([3]; doxorubicin 10 mg/kg iv day 0, mice, day 7 and 11): significant kidney lesions

SMILES: CCCCCc1cccc(CC(=O)[O-])n1.[Na+] [XVI]
In Vivo Results: effect on hematopoiesis/erythropoiesis [4]: ++ (++ designates 40-70% of compound I activity)

SMILES: CCCC/C=C/c1cccc(CC(=O)[O-])c1.[Na+] [XV]
In Vivo Results: effect on hematopoiesis/erythropoiesis [4]: ++ (++ designates 40-70% of compound I activity)
